Laboratory results from patent US20260328779A1, “METHODS AND COMPOSITIONS FOR THE DIAGNOSIS AND TREATMENT OF IGA NEPHROPATHY” (Beth Israel Deaconess Medical Center, Inc., priority 2022, published 2026).

Tested on: anti-Tn antibodies
Assay: Inhibition of anti-Tn antibody binding to Tn(+)matrix beads (fluorescent anti-IgM imaging)
Settings: 20 mM preincubation, 30 min on ice; anti-human IgM detection
Text: To investigate whether the interaction of the anti-Tn antibodies to the Tn(+)matrix is Tn antigen-dependent, fluorescent-tagged secondary antibodies were used to image the antibodies bound to the Tn(+)matrix. Strong staining for bound IgM (FIG. 3C, upper panel, green fluorescent) was observed, but no significant staining for either IgG or IgA (FIG. 3C, middle and bottom panels). The IgG and IgA1 levels in the bound material are thus either relatively low or these antigens could be cryptic within complexes and inaccessible in the context of the beads. […]
~50 ml of human sera was mixed with 1 ml of Tn(+)matrix beads (50% slurry in PBS) at 4° C. […] The concentration of eluted protein was determined by BCA assay (Cat #23225, Thermo Fisher Scientific). Each fraction (Input, Flow through (FT), Washes) was proportionally loaded, except elution 10 ml, and analyzed on SDS-PAGE, and stained with Coomassie, or transferred to nitrocellulose membrane (Cat #1704158, Bio-Rad) using Trans-Blot Turbo Transfer System (Bio-Rad). […] After washing 3× with TBST for 10 min, the signals were analyzed on an Amersham™ Imager 600 (GE Healthcare Life Sciences) using SuperSignal™ West Pico chemiluminescent substrate (Cat #34578, Thermo Scientific). […] The beads were washed twice with chilled 1 ml of PBS, and analyzed using a microscope (AMG EVOS FL digital inverted microscope, Fisher Scientific, ×100 magnification). […]

With `CO[C@H]1O[C@H](CO)[C@H](O)[C@H](O)[C@H]1NC(C)=O` [α-methylGalNAc] the “inhibition of binding of antibodies to the Tn(+)matrix” value was “completely inhibited”.
